Assay results taken from patent USRE48461E1, “Modulation of androgen receptor expression” (Ionis Pharmaceuticals, Inc., priority 2012, dated 2021).
Oligonucleotides are written 5' to 3', each unit as a sugar letter and its base; * is a phosphorothioate linkage, no mark a phosphodiester; rarer units and linkages stand in square brackets, end groups in braces. Plain capitals give the bases only. e = 2'-O-(2-methoxyethyl) (MOE); k = constrained ethyl (cEt); [5mC] = 5-methylcytosine; d = 2'-deoxy (DNA)

Columns and labels:
[1] = system: AR mRNA; experiment: Antisense inhibition of human AR in HuVEC cells, single concentration (electroporation, qRT-PCR RTS3559); format: cell-based; settings: 500 nM ASO, electroporation, ~24 h, Table 1
Procedure: Antisense oligonucleotides were designed targeting an AR nucleic acid and were tested for their effects on AR mRNA in vitro. The antisense oligonucleotides were tested in a series of experiments that had similar culture conditions. […] Human primer probe set RTS3559 (forward sequence [NT], designated herein as SEQ ID NO: 9; reverse sequence [NT], designated herein as SEQ ID NO: 10; probe sequence [NT], designated herein as SEQ ID NO: 11) was used to measure mRNA levels. AR mRNA levels were adjusted according to total RNA content, as measured by RIBOGREEN®. […] A total of 155 oligonucleotides were tested. Additional antisense oligonucleotides were designed targeting an AR nucleic acid and were tested for their effects on AR mRNA in vitro. […] Human primer probe set RTS3559 was used to measure mRNA levels. AR mRNA levels were adjusted according to total RNA content, as measured by RIBOGREEN®. […] A total of 82 oligonucleotides were tested. Additional antisense oligonucleotides were designed targeting an AR nucleic acid and were tested for their effects on AR mRNA in vitro. […] Human primer probe set RTS3559 was used to measure mRNA levels. AR mRNA levels were adjusted according to total RNA content, as measured by RIBOGREEN®. […] A total of 40 oligonucleotides were tested. Additional antisense oligonucleotides were designed targeting an AR nucleic acid and were tested for their effects on AR mRNA in vitro. […] Human primer probe set RTS3559 was used to measure mRNA levels. AR mRNA levels were adjusted according to total RNA content, as measured by RIBOGREEN®. […] A total of 75 oligonucleotides were tested. Additional antisense oligonucleotides were designed targeting an AR nucleic acid and were tested for their effects on AR mRNA in vitro. […] Human primer probe set RTS3559 was used to measure mRNA levels. AR mRNA levels were adjusted according to total RNA content, as measured by RIBOGREEN®. […] A total of 616 oligonucleotides were tested. Additional antisense oligonucleotides were designed targeting an AR nucleic acid and were tested for their effects on AR mRNA in vitro. […] Human primer probe set RTS3559 was used to measure mRNA levels. AR mRNA levels were adjusted according to total RNA content, as measured by RIBOGREEN®. […] A total of 385 oligonucleotides were tested.

[2] = system: AR mRNA; experiment: Dose-dependent antisense inhibition of human AR in HuVEC cells (electroporation, qRT-PCR RTS3559, IC50); format: cell-based; settings: HuVEC, ~16 h
Procedure: (§1) After a treatment period of approximately 16 hours, RNA was isolated from the cells and AR mRNA levels were measured by quantitative real-time PCR. Human AR primer probe set RTS3559 was used to measure mRNA levels. AR mRNA levels were adjusted according to total RNA content, as measured by RIBOGREEN®. […] The antisense oligonucleotides were tested in a series of experiments that had similar culture conditions.
as §1, §1, §1, §1
(§2) After a treatment period of approximately 16 hours, RNA was isolated from the cells and AR mRNA levels were measured by quantitative real-time PCR. Human AR primer probe set RTS3559 was used to measure mRNA levels. AR mRNA levels were adjusted according to total RNA content, as measured by RIBOGREEN®.
as §2

| Substance | % inhibition [1] | percent inhibition of AR ([2]; 55.6 nM, Table 4) | percent inhibition of AR ([2]; 166.7 nM, Table 4) | percent inhibition of AR ([2]; 500.0 nM, Table 4) | percent inhibition of AR ([2]; 1500.0 nM, Table 4) | IC50 ([2]; Table 4) | percent inhibition of AR ([2]; 55.6 nM, Table 3) | percent inhibition of AR ([2]; 166.7 nM, Table 3) | percent inhibition of AR ([2]; 500.0 nM, Table 3) | percent inhibition of AR ([2]; 1500.0 nM, Table 3) | IC50 ([2]; Table 3) | also measured |
| --- | --- | --- | --- | --- | --- | --- | --- | --- | --- | --- | --- | --- |
| 549332 (kG*k[5mC]*kG*d[5mC]*dT*d[5mC]*dT*dG*dA*d[5mC]*dA*dG*d[5mC]*k[5mC]*kT*k[5mC]; antisense) [compound 549332] | 84% | 35% | 57% | 79% | 79% | 104 nM |  |  |  |  |  |  |
| 549334 (k[5mC]*kA*k[5mC]*d[5mC]*dT*dG*d[5mC]*dG*dG*dG*dA*dA*dG*k[5mC]*kT*k[5mC]; antisense) [compound 549334] | 83% | 29% | 46% | 63% | 72% | 253 nM |  |  |  |  |  |  |
| 549338 (kG*kG*k[5mC]*dT*dG*dT*dG*dA*dT*dG*dA*dT*dG*k[5mC]*kG*kG; antisense) [compound 549338] | 83% | 32% | 47% | 67% | 78% | 154 nM |  |  |  |  |  |  |
| 549345 (kT*k[5mC]*kT*dG*dG*dA*dA*d[5mC]*dA*dG*dA*dT*dT*k[5mC]*kT*kG; antisense) [compound 549345] | 82% |  |  |  |  |  |  |  |  |  |  |  |
| 549347 (k[5mC]*kT*kT*d[5mC]*dG*d[5mC]*dG*d[5mC]*dA*d[5mC]*dG*d[5mC]*dT*k[5mC]*kT*kG; antisense) [compound 549347] | 84% | 15% | 37% | 62% | 71% | 357 nM |  |  |  |  |  |  |
| 549358 (kA*kT*kG*dG*dT*dG*d[5mC]*dT*dG*dG*d[5mC]*d[5mC]*dT*k[5mC]*kG*k[5mC]; antisense) [compound 549358] | 91% |  |  |  |  |  | 29% | 63% | 85% | 95% | 141 nM |  |
| 549360 (kG*kG*kT*d[5mC]*dG*dA*dA*dG*dT*dG*d[5mC]*d[5mC]*d[5mC]*k[5mC]*k[5mC]*kT; antisense) [compound 549360] | 89% |  |  |  |  |  | 44% | 58% | 79% | 83% | 116 nM |  |
| 549361 (kG*kA*k[5mC]*dA*d[5mC]*d[5mC]*dG*dA*d[5mC]*dA*d[5mC]*dT*dG*k[5mC]*k[5mC]*kT; antisense) [compound 549361] | 84% |  |  |  |  |  | 12% | 30% | 52% | 66% | 525 nM |  |
| 549362 (k[5mC]*k[5mC]*k[5mC]*dG*dA*dA*dG*d[5mC]*dT*dG*dT*dT*d[5mC]*k[5mC]*k[5mC]*k[5mC]; antisense) [compound 549362] | 85% |  |  |  |  |  | 10% | 23% | 57% | 74% | 447 nM |  |
| 549366 (k[5mC]*kT*kT*dG*d[5mC]*d[5mC]*dT*dG*d[5mC]*dG*d[5mC]*dT*dG*kT*k[5mC]*kG; antisense) [compound 549366] | 84% | 44% | 58% | 72% | 91% | 129 nM |  |  |  |  |  |  |
| 549371 (kG*kT*kT*dG*dT*dA*dG*dT*dA*dG*dT*d[5mC]*dG*k[5mC]*kG*kA; antisense) [compound 549371] | 93% |  |  |  |  |  | 30% | 52% | 83% | 88% | 148 nM |  |
| 549374 (kG*k[5mC]*kG*d[5mC]*dT*dG*d[5mC]*d[5mC]*dG*dT*dA*dG*dT*k[5mC]*k[5mC]*kA; antisense) [compound 549374] | 93% |  |  |  |  |  | 40% | 59% | 83% | 92% | 108 nM |  |
| 549386 (kG*k[5mC]*kT*dT*d[5mC]*dA*dT*d[5mC]*dT*d[5mC]*d[5mC]*dA*d[5mC]*kA*kG*kA; antisense) [compound 549386] | 77% |  |  |  |  |  |  |  |  |  |  |  |
| 569214 (antisense kG*kG*kT*dT*dG*dA*dT*dT*dT*dA*dA*dT*kG*kG*kT*eT) [compound 569214] |  |  |  |  |  |  |  |  |  |  |  | percent inhibition of AR ([2]; 62.5 nM, Table 12): 20%; percent inhibition of AR ([2]; 125.0 nM, Table 12): 26%; percent inhibition of AR ([2]; 500.0 nM, Table 12): 62%; percent inhibition of AR ([2]; 1000.0 nM, Table 12): 76%; IC50 ([2]; Table 12): 265 nM |
